Article PMC12691742, “Anti-Cancer Outcome of Glucocorticoid Receptor Transrepression by Synephrine Derivatives in Hematological Malignancies” (International Journal of Molecular Sciences, 2025)
pIC50: −log10 of the molar value. Like-named read-outs stand apart in the source and are kept apart here.

Experiments:
[1] = test system: NF-kB activity in Granta cells; test: NF-kB.Luc reporter assay in Granta cells; format: cell-based; settings: 5 h, 4S-C2 10 µM, 10S-E2 1 µM
Method: (§1) We analyzed GR TR function using an NF-kB.Luc reporter assay with the irritating inflammatory agent phorbol 13-acetate 12-myristate (TPA) as an inducer of NF-kB signaling and positive control.
(§2) Figure 4 Effects of synephrine derivatives on GR transrepression in Granta lymphoma and K562 leukemia cells. (A) K562 and Granta cells stably infected with the lentiviruses bearing the NF-kB luciferase reporter. Cells were incubated for 5 h with the solvent (control), TPA (5 ng/mL), 4S-C2 (10 µM), 8S-E3 (10 µM), 10S-E2 (1 µM), or 13S-G2 (1 µM). Luciferase activity was determined as described in the Materials and Methods section. (B) IL1-α and IL6 mRNA expression in K562 and Granta cells. Q-PCR results were normalized to the expression of the housekeeping gene RPL27 and are presented as the fold change compared to the control. The mean ± SD was calculated for three individual samples/condition (n = 3). Statistically significant differences compared to the control: * p < 0.05, ** p < 0.01.
Lentiviral stocks were generated using the lentiviral expression vector NF-kB. Luc was encoded with Firefly Luciferase reporters with the NF-kB-responsive promoter of minimal CMV promoter as a control (“System Bioscience”, Moutain View, CA, USA), along with packing plasmids GAG, REV, and VSVg. HEK-293T cells were transfected with the abovementioned plasmids using TurboFect reagent (“Thermo Scientific”, Waltham, MA, USA) according to the manufacturer’s protocol. […] The infection efficiency exceeded 90% (tracked by GFP fluorescence).
(§3) Cells (10^4 cells/well in a 24-well plate), stably expressing Firefly Luciferase under the NF-kB promoter, were treated for 5 h with TPA (12-O-tetradecanoylphorbol-13-acetate, Boston, MA, USA, 10 ng/mL), 4S-C2 (10 µM), 8S-E3 (10 µM), 10S-E2 (1 µM), 13S-G2 (1 µM), or the vehicle. Luciferase activity was measured as described using a commercial Luciferase Assay (“Promega”, Madison, WI, USA) and Luminometer TD 20/20 (“Turner Design Instruments”, San Jose, CA, USA). […]

GR = target: T1, GR (Homo sapiens, UniProt P04150); test: GR radioligand binding assay, competition with [3H]Dex in K562 cells
T1 construct: endogenous in cells; host or cells: K562
T1 sequence (P04150 1-777): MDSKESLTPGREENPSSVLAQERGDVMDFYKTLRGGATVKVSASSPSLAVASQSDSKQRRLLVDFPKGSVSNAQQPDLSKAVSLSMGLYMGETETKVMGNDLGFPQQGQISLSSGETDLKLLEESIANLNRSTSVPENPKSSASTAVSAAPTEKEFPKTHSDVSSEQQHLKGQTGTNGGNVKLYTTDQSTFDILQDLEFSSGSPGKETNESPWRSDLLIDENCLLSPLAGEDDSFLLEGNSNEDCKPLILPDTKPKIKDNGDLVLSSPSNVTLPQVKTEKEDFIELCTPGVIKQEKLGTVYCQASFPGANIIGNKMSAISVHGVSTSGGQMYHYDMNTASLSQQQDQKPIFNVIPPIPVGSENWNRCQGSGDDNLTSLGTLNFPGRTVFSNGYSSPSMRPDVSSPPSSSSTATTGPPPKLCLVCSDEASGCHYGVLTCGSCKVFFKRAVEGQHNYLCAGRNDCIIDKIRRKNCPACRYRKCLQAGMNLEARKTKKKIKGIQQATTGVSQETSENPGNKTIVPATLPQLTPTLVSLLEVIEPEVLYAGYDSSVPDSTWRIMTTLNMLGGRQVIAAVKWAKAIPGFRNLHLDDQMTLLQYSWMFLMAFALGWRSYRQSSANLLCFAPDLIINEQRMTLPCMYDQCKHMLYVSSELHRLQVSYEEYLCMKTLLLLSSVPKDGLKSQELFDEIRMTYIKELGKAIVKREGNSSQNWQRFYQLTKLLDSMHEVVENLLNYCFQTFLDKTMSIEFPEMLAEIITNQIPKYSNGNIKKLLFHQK
Method: (A,B). […] The stability of the complex was simulated using molecular dynamics in the GROMACS program. (C) GR binding affinity was estimated using a radioligand binding assay. […] Cell lysate radioactivity was measured using a RackBeta 1215 LC (LKB Wallac, Turku, Finland) spectrometer for 4 min. […] The experiments were performed in triplicate (n = 3).
After 90 min of incubation, the cells were washed twice by centrifugation in cold serum-free medium (1500 rpm, 5 min). The cells were then lysed with RIPA buffer (50 mM Tris (pH 8.0), 150 mM NaCl, 1 mM ethylenediaminetetraacetic acid, 0.1% sodium dodecyl sulfate, 0.5% sodium deoxycholate, 1% triton-X100, 10% glycerin, and protease inhibitor) for 20 min. Lysates were transferred to scintillation liquid, and radioactivity was measured using a RackBeta 1215 LC spectrometer for 4 min. […] IC50 was determined using GraphPad Prism software, Ver.7.0. […] “Top” meant the highest value in dpm and was equal to 100%, while the “bottom” was considered as the lowest value (0%). […] The IC50 values for each ligand were determined by plotting these curves. The experiments were performed in triplicate.

[2] = test system: NF-kB activity in K562 cells; test: NF-kB.Luc reporter assay in K562 cells; format: cell-based; settings: 5 h, 4S-C2 10 µM
Method: as §1
as §2, with “Q-PCR results were normalized to the expression of the housekeeping gene RPL27 and are presented as the fold change compared to the control.” left out, “Statistically significant differences compared to the control: * p < 0.05, ** p < 0.01.” left out
Lentiviral stocks were generated using the lentiviral expression vector NF-kB. […] The infection efficiency exceeded 90% (tracked by GFP fluorescence).
as §3

[3] = test system: GR phosphorylated by Ser211 in K562 and Granta cells; test: Western blot of nuclear phospho-GR (Ser211); format: cell-based; settings: 10 h; Dex 10 µM, 4S-C2 50 µM, 8S-E3 50 µM, 10S-E2 15 µM, 13S-G2 25 µM
Method: (§4) Figure 3 Effects of synephrine derivatives on GR transactivation in Granta lymphoma and K562 leukemia cells. (A) Q-PCR analysis of FKBP51, GILZ, and DDIT4 mRNA expression in K562 and Granta cells. […] The Q-PCR results were normalized to the expression of the housekeeping gene RPL27 and are presented as fold changes compared to the control. The mean ± SD was calculated for three individual samples/condition (n = 3). Statistically significant differences compared to the control: * p < 0.05, ** p < 0.01. (B) The levels of the nuclear fraction of phospho-GR (Ser211) were determined using Western blot analysis (n = 3; characteristic images are presented in the figure). Histone H3 was used as a loading control.
Western blot analysis was performed as previously described. Proteins were resolved using SDS-PAGE. Membranes were blocked with 5% nonfat milk solution and then incubated with primary antibodies against phosphorylated GR (pGR, Ser211) (“Santa Cruz Biotechnology”, Santa Cruz, CA, USA) overnight at 4 °C. To verify equal protein loading and adequate transfer, the membranes were probed with Histone H3 antibodies (“Cell Signaling”, Boston, MA, USA). Goat anti-rabbit IgGs (“Jackson Immuno Research”, West Grove, PA, USA) were used as secondary antibodies. Signals were detected using ECL reagent and an ImageQuant LAS4000 system (“GE HealthCare”, Chicago, IL, USA). ImageJ 1.54h software was used for densitometry. The experiments were performed in triplicate.
7 K562, pGR nuclear 5 Granta, pGR nuclear
Supplementary Figure S 22. Quantification of Western blot analysis. K562 and Granta cells […]
μM) and 13S-G2 (25 μ M) for 10 h. Quantification of Western blot anal ysis of p- GR protein levels was done usin g Im a ge J f ree so ftwar e. Statisticall y significant diff eren ces as compared to control: […]

[4] = test system: leukemia and lymphoma cells (Granta, K562); parameters: method as in PMID 39858397; settings: leukemia and lymphoma cells; read-out: cell viability IC50; cited from earlier work
[5] = test system: FKBP51, GILZ, DDIT4 mRNA expression in K562 and Granta cells; test: Q-PCR of GR transactivation marker genes; format: cell-based; settings: 4 h (FKBP51, GILZ) or 24 h (DDIT4); Dex 10 µM, 10S-E2 0.1 µM; vs control
Excerpt: Q-PCR results were confirmed by Western blot analysis of the level of GR phosphorylated by Ser211, known as a crucial protein modification for GR TA realization because of its binding to short cysteine-rich fragments of the coactivator CREB-binding protein [41].
as §4
Total RNA isolation from cell cultures and murine bones, reverse transcription, and Q-PCR were performed as described in [36]. Primers were designed using NCBI Primer-BLAST https://www.ncbi.nlm.nih.gov/tools/primer-blast/, accessed on 25 August 2025 (Supplementary Table S1). Results were normalized to the expression of the housekeeping RPL27 и Rpl27 genes. The experiments were performed in triplicate.

Row | SMILES | effect on NF-kB activity [1] | pIC50 (GR) | effect on NF-kB activity [2] | GR phosphorylation level at Ser211 [3] | pIC50 [4] | expression of TA marker genes FKBP51, GILZ, DDIT4 [5] | pIC50 (GR; K562 cells, 0.5 µM [3H]Dex, 90 min, n = 3)
1 | CCCCCCNCC(O)c1ccc(OC)cc1 (stereo not drawn) [4S-C2, 2-(hexylamino)-1-(4-methoxyphenyl)ethanol] | significantly decreased | 5.49 | induced it | weak increase |  |  | 
2 | CCCCCCNCC(O)c1ccc([N+](=O)[O-])cc1 (stereo not drawn) [13S-G2, 2-(hexylamino)-1-(4-nitrophenyl)ethanol] |  | 6.16 |  | weak increase | 4.59 to 4.89 | did not increase the expression | 
3 | CNCC(Cl)c1ccc(OC(C)=O)cc1 (stereo not drawn) [CpdA, reference compound] |  |  |  |  |  |  | 5.55
